Test results: ChEMBL document CHEMBL1201862, “PubChem BioAssay data set” (2004)
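Exposure lasted 48 hours, with cells grown in 96-well plates and compounds tested at five concentrations. The concentration for 50% growth inhibition is given as GI50.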 Calls of active or inactive are those of the source. Cut-off read from the data, not from the text of the source: active = GI50 up to about 1.1 µM and inactive = higher.

How the values were obtained:
Assay in all cases: growth of human tumour cells (NCI), 48 h
[1] = tested on: NCI/ADR-RES
[2] = tested on: Malme-3M
[3] = tested on: NCI-H226
[4] = tested on: SK-MEL-2
[5] = tested on: DMS-114
[6] = tested on: HT-29
[7] = tested on: HL-60
[8] = tested on: NCI-H460
[9] = tested on: IGROV-1
[10] = tested on: HOP-18
[11] = tested on: K562
[12] = tested on: DLD-1
[13] = tested on: OVCAR-3
[14] = tested on: SNB-78
[15] = tested on: CAKI-1
[16] = tested on: ACHN
[17] = tested on: LXFL 529
[18] = tested on: PC-3
[19] = tested on: MDA-N
[20] = tested on: MDA-MB-231

Measured: GI50

C=C1C(=O)OC2C=C(C)CC3C=C(CCC=C(C)CCC12)C(=O)O3 (centres undefined)
inactive: [1] 62.8 µM | [2] 46.1 µM | [3] 72.8 µM | [4] 53.3 µM | [5] 65.9 µM | [6] 67 µM | [7] 15.7 µM | [8] 67.5 µM | [9] 48 µM | [10] 51.3 µM | [11] 55.8 µM | [12] 54.5 µM | [13] 56.8 µM | [14] 66.4 µM | [15] 54.7 µM

CO[C@H]1ON=C(c2c(C)cc(C)cc2C)[C@@H]1C1(c2ccccc2)ON=C(c2c(C)cc(C)cc2C)O1 (some centres undefined)
inactive: [2] > 100 µM | [4] > 100 µM | [7] 46.3 µM | [8] > 100 µM | [9] > 100 µM | [16] > 100 µM | [17] > 100 µM | [10] > 100 µM | [11] > 100 µM | [12] > 100 µM | [14] > 100 µM

CC(=O)O[C@@H]1CN(S(=O)(=O)c2ccc(C)cc2)C[C@@H]1C1CCCCC1
inactive: [18] 18.3 µM | [1] 20.6 µM | [3] 16.5 µM | [4] 17 µM | [6] 22.9 µM | [8] 34.5 µM | [9] 17.3 µM | [16] 37.5 µM | [19] 17.1 µM | [11] 45.7 µM | [13] 15 µM | [15] 19 µM

C=CCNC(=O)CN(CC(=O)OC)C1CCCCC1N(CC(=O)OC)CC(=O)OC (centres undefined)
inactive: [18] > 100 µM | [1] > 100 µM | [2] > 100 µM | [3] > 100 µM | [4] > 100 µM | [6] > 100 µM | [7] > 100 µM | [8] > 100 µM | [9] > 100 µM | [16] > 100 µM | [19] > 100 µM | [20] > 100 µM | [11] > 100 µM | [13] > 100 µM | [15] > 100 µM

CC(C)CNC1=NCC(C)S1 (centres undefined)
inactive: [18] > 100 µM | [2] > 100 µM | [3] > 100 µM | [4] > 100 µM | [6] > 100 µM | [7] > 100 µM | [8] > 100 µM | [9] > 100 µM | [16] > 100 µM | [19] > 100 µM | [20] > 100 µM | [11] > 100 µM | [13] > 100 µM | [15] > 100 µM

O=C1C(Cl)N(c2ccccc2Cl)C1c1c[nH]c2ccccc12 (centres undefined)
inactive: [2] > 100 µM | [4] > 100 µM | [5] > 100 µM | [6] > 100 µM | [7] > 100 µM | [8] > 100 µM | [9] > 100 µM | [11] > 100 µM | [13] > 100 µM

CNC(=O)N(C)COC
inactive: [2] > 100 µM | [3] > 100 µM | [4] > 100 µM | [5] > 100 µM | [6] > 100 µM | [7] > 100 µM | [8] > 100 µM | [9] > 100 µM | [16] > 100 µM | [17] > 100 µM | [10] > 100 µM | [12] > 100 µM | [13] 32.3 µM | [14] > 100 µM | [15] > 100 µM

C#CC[N+](CCO)(CCO)CCCCCCCCCCCCCCCCCC
inactive: [1] 20.2 µM | [2] 18.4 µM | [3] 12.6 µM | [4] 16.4 µM | [5] 10.3 µM | [6] 4.59 µM | [7] 1.55 µM | [8] 9.53 µM | [9] 2.18 µM | [10] 9.33 µM | [11] 5.24 µM | [12] 9.25 µM | [13] 13.5 µM | [14] 6.53 µM | [15] 5.87 µM

Cc1cn(Cc2cn(CC3OC(n4cc(C)c(=O)[nH]c4=O)CC3O)nn2)c(=O)[nH]c1=O (centres undefined)
inactive: [18] > 100 µM | [1] > 100 µM | [2] > 100 µM | [3] > 100 µM | [4] > 100 µM | [16] > 100 µM | [19] > 100 µM | [20] > 100 µM | [13] > 100 µM | [15] > 100 µM

Cn1c(=O)c2nc(N3CCCCC3)cnc2n(C)c1=O
inactive: [2] > 100 µM | [6] > 100 µM | [7] > 100 µM | [8] > 100 µM | [9] > 100 µM | [16] > 100 µM | [17] > 100 µM | [11] > 100 µM | [12] > 100 µM | [13] > 100 µM | [15] > 100 µM

O=C(O)CN1CCN(CC(=O)O)CCN(CC(=O)O)CC1
inactive: [18] > 28.5 µM | [2] > 28.7 µM | [4] > 43.3 µM | [6] 3.55 µM | [7] 1.69 µM | [8] 3.49 µM | [9] 4.85 µM | [16] > 100 µM | [19] 3.7 µM | [20] > 31.9 µM | [11] 2.31 µM | [13] > 94.6 µM | [15] 8890 µM

C=C(/C=C/C=C(\C)CCC=C(C)C)[C@@H]1CC[C@]2([C@H](CCCO)/C(=C(/C)C=O)CC[C@]2(C)O)[C@@H]1O
inactive: [2] 11.8 µM | [3] 24 µM | [4] 20.2 µM | [6] 15.8 µM | [7] 11.5 µM | [8] 9.71 µM | [9] 32.2 µM | [16] > 100 µM | [17] 19.1 µM | [10] 23.9 µM | [11] 11.2 µM | [12] 18.4 µM | [14] 17.7 µM | [15] 28 µM
